Where two headings read alike, the source gives them in different places.
How the values were obtained:
5-HT2 = biological target: T1, 5-HT2 (Sus scrofa, UniProt P50129); test: radioligand binding assay, serotonin 5-HT2 receptor, [3H]ketanserin; set-up: species or system porcine
T1 construct: membrane preparations from porcine cortex; from tissue; host or cells: porcine cortex

dopamine D1 receptor = biological target: T2, dopamine D1 receptor (Sus scrofa, UniProt P50130); test: radioligand binding assay, dopamine D1 receptor, [3H]SCH 23390; conditions: porcine striatum membranes, mean of two to five experiments in triplicate, read-out: Ki D1
T2 construct: native membrane preparations from porcine striatum; from tissue; host or cells: porcine striatum
T2 sequence (P50130 whole entry): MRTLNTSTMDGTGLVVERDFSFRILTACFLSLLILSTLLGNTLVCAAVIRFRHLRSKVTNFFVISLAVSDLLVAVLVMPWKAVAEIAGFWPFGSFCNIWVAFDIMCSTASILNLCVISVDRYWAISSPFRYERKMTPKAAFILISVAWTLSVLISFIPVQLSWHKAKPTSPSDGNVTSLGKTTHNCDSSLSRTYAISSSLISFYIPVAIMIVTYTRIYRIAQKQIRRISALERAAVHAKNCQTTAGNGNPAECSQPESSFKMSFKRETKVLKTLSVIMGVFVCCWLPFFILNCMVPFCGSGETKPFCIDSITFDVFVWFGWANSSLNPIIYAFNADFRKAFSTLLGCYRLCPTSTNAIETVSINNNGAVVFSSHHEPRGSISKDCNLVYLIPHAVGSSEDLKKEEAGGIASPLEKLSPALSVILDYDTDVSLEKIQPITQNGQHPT
Excerpt: (§1) Biological activity of the compounds has been determined in radioligand binding assays. These experiments have been done according to methods which are described in literature (Hübner, H. et al., J. Med. Chem. (2000), 43, 7562). For the determination of binding affinity to the receptors of the dopamine D2 family membranes were established carrying the human D2long, D2short, D3 or D4.4 receptor subtype stably expressed in Chinese hamster ovary cell lines. In principle, the binding experiments started when incubating an appropriate amount of membrane with the radioligand [^3H]spiperone and the particular test compounds used in a wide range of different concentrations from subnanomolar up to micromolar ones. In the same way, binding affinities of the test compounds to the dopamine D1 receptor were determined when using native membrane preparations from porcine striatum and the D1 selective radioligand [^3H]SCH 23390.
(§2) The results of the binding experiments are summarized in Table 1 as mean values of two to five individual experiments each done in triplicate and expressed as Ki values in nM.

human D2long, D2short = human D2long, D2short (Homo sapiens, UniProt P14416); test: biochemical; format: binding; conditions: CHO cell membranes, [3H]spiperone; mean of two to five experiments in triplicate; read-out: Ki D2
Sequence of human D2long, D2short (P14416 whole entry): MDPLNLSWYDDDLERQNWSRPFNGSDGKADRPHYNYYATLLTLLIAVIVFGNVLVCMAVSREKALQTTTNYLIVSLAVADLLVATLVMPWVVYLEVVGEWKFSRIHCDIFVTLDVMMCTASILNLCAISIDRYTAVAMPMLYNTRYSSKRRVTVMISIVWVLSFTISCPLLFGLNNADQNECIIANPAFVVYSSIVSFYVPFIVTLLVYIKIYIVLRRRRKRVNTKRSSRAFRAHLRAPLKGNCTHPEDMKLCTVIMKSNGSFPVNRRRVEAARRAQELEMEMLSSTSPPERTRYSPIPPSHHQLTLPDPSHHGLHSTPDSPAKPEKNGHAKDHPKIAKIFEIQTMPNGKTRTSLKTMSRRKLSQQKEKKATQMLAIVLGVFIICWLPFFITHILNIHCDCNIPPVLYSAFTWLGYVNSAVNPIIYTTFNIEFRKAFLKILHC
Protocol: as §1, with “These” for “Biological activity of the compounds has been determined in radioligand binding assays. These”, “ones.” for “ones. In the same way, binding affinities of the test compounds to the dopamine D1 receptor were determined when using native membrane preparations from porcine striatum and the D1 selective radioligand [^3H]SCH 23390.”

alpha-1 = test: radioligand binding assay, adrenergic alpha-1 receptor, [3H]prazosin; conditions: porcine cortical membranes, mean of two to five experiments in triplicate, read-out: Ki alpha1
Protocol: (§3) The investigation of receptor binding to the serotonin and adrenergic receptors was done according to a published procedure (Heindl, C. et al., Tetrahedron: Asymmetry (2003), 14, 3141-3152). In detail, for the determination of the binding properties to serotonin receptors membrane preparations from porcine cortex was incubated with the 5-HT1A selective radioligand [^3H]WAY 100635 or with the 5-HT2 selective compound [^3H]ketanserin. The measurement of alpha-1 and alpha-2 receptor binding was achieved when utilizing porcine cortical membranes and the selective radioligands [^3H]prazosin (for alpha-1) and [^3H]RX821002 in an assay similar to that described above.
as §2

human D3 = human D3 (Homo sapiens, UniProt P35462); test: radioligand binding assay, dopamine D3 receptor, [3H]spiperone; conditions: CHO cell membranes, mean of two to five experiments in triplicate, read-out: Ki D3
Sequence of human D3 (P35462 whole entry): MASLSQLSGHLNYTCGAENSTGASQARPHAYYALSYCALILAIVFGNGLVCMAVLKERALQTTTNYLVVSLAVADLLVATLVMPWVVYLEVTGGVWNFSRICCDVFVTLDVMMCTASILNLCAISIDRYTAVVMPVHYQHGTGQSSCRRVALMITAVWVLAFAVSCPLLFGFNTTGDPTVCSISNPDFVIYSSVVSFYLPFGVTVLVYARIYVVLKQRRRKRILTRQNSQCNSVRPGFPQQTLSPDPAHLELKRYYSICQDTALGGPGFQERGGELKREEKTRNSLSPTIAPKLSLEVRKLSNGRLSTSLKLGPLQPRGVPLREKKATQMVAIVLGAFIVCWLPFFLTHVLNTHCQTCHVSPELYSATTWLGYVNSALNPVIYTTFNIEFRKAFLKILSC
Protocol: as §1, with “These” for “Biological activity of the compounds has been determined in radioligand binding assays. These”, “ones.” for “ones. In the same way, binding affinities of the test compounds to the dopamine D1 receptor were determined when using native membrane preparations from porcine striatum and the D1 selective radioligand [^3H]SCH 23390.”

5-HT1A = biological target: T3, 5-HT1A (Sus scrofa, UniProt A0A4X1UTF5); test: radioligand binding assay, serotonin 5-HT1A receptor, [3H]WAY 100635; conditions: porcine cortex membranes, mean of two to five experiments in triplicate, read-out: Ki 5-HT1a
T3 construct: membrane preparations from porcine cortex; from tissue; host or cells: porcine cortex
T3 sequence (A0A4X1UTF5 1-422): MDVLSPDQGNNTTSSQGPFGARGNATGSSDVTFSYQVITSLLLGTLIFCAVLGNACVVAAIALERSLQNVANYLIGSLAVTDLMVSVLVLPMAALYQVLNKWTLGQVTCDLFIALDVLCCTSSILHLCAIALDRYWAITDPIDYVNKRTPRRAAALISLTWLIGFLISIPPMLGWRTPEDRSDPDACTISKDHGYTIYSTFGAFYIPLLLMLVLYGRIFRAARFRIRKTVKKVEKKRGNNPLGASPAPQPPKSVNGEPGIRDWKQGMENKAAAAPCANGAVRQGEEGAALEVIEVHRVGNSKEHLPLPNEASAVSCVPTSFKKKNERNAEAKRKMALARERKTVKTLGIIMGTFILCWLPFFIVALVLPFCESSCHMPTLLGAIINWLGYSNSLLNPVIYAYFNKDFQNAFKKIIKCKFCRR
Protocol: as §3, §2

human D4.4 = biological target: T4, human D4.4 (Homo sapiens, UniProt P21917); test: radioligand binding assay, dopamine D4.4 receptor, [3H]spiperone; conditions: CHO cell membranes, mean of two to five experiments in triplicate, read-out: Ki D4.4
T4 sequence (P21917 1-419): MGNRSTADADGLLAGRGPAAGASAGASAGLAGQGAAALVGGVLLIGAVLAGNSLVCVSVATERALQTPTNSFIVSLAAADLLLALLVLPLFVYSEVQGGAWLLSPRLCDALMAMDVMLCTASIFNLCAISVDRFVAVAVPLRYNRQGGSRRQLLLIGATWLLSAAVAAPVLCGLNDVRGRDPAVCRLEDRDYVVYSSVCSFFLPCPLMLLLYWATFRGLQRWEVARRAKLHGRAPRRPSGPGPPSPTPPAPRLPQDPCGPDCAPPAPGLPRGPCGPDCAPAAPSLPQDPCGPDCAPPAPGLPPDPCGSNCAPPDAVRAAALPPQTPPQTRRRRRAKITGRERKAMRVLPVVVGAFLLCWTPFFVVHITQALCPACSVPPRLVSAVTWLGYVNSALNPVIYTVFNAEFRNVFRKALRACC
Excerpt: as §1, §2

[1] = porcine cortex membranes, [3H]ketanserin, mean of two to five experiments in triplicate, read-out: Ki 5-HT2

T1 sequence (P50129 whole entry): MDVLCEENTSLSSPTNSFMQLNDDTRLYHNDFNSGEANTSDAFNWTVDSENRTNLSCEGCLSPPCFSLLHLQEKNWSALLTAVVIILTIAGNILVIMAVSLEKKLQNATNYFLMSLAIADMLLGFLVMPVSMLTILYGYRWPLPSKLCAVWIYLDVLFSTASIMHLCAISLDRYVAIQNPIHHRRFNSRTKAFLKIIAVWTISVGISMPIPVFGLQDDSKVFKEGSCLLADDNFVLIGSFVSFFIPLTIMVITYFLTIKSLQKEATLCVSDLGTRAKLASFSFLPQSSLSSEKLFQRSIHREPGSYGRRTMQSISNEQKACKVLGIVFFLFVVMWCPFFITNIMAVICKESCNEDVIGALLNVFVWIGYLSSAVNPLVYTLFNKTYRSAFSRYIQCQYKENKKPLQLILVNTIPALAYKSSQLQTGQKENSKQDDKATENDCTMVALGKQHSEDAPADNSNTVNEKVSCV

| Ki (dopamine D1 receptor) [µM] | Ki (human D2long, D2short) [µM] | Ki (alpha-1) [µM] | Ki (human D3) [µM] | Ki (5-HT1A) [µM] | Ki (human D4.4) [µM] | Ki (5-HT2) [µM] | Compound | Ki (5-HT2; [1]) [µM] |
| --- | --- | --- | --- | --- | --- | --- | --- | --- |
| > 5 | 0.501 to 5 | 0.501 to 5 | 0.501 to 5 | 0.05 to 0.5 | > 5 | 0.501 to 5 | Cc1ccc(CNCC2(F)CCN(C(=O)c3ccc(-c4ccccc4)s3)CC2)nc1 [Example E13, [4-Fluoro-4-[[(5-methylpyridin-2-ylmethyl)amino]methyl]piperidin-1-yl]-5-phenylthien-2-yl-mathanone] |  |
| > 5 | > 5 | 0.501 to 5 | > 5 | < 0.05 | 0.05 to 0.5 |  | Cc1ccc(CNCC2(F)CCN(C(=O)c3cc4ccsc4s3)CC2)nc1 [Example E27, [4-Fluoro-4-[[(5-methylpyridin-2-ylmethyl)amino]methyl]piperidin-1-yl]-thieno[2,3-b]thien-2-yl-methanone] | > 5 |
| > 5 | > 5 | > 5 | > 5 | 0.05 to 0.5 | > 5 | > 5 | Cc1ccc(CNCC2(F)CCN(C(=O)c3cc4ccccn4n3)CC2)nc1 [Example E42] |  |
| > 5 | > 5 | 0.501 to 5 | 0.501 to 5 | 0.05 to 0.5 | > 5 | 0.501 to 5 | Cc1ccc(CNCC2(F)CCN(C(=O)c3ccc(-c4cccs4)s3)CC2)nc1 [Example E15, [2,2']Bithien-5-yl-[4-fluoro-4-[[(5-methylpyridin-2-ylmethyl)amino]methyl]piperidin-1-yl]-methanone] |  |
| > 5 | > 5 | > 5 | > 5 | 0.05 to 0.5 | 0.501 to 5 | > 5 | COc1cscc1C(=O)N1CCC(F)(CNCc2ccc(C)cn2)CC1 [Example E20, [4-Fluoro-4-[[(5-mothylpyridin-2-ylmothyl)amino]methyl]piperidin-1-yl]-4-methoxythien-3-yl-methanone] |  |

Second part, the compound before the results:

| Compound | Ki (dopamine D1 receptor) [µM] | Ki (human D2long, D2short) [µM] | Ki (alpha-1) [µM] | Ki (human D3) [µM] | Ki (5-HT1A) [µM] | Ki (human D4.4) [µM] | Ki (5-HT2) [µM] | Ki (5-HT2; [1]) [µM] |
| --- | --- | --- | --- | --- | --- | --- | --- | --- |
| Cc1ccc(CNCC2(F)CCN(C(=O)c3ccc(-c4csc(C)n4)s3)CC2)nc1 [Example E16, [4-Fluoro-4-[[(5-methylpyridin-2-ylmethyl)amino]methyl]piperidin-1-yl]-5-(2-methylthiazol-4-yl)thien-2-yl-methanone] | > 5 | > 5 | 0.501 to 5 | 0.501 to 5 | 0.05 to 0.5 | > 5 |  | > 5 |
| Cc1ccc(CNCC2(F)CCN(C(=O)c3ccc(-c4ccccn4)s3)CC2)nc1 [Example E14, [4-Fluoro-4-[[(5-methylpyridin-2-ylmethyl)amino]methyl]piperidin-1-yl]-5-pyridin-2-ylthien-2-yl-methanone] | > 5 | > 5 | 0.501 to 5 | > 5 | 0.05 to 0.5 | > 5 |  | 0.501 to 5 |
| COc1c(C(=O)N2CCC(F)(CNCc3ccc(C)cn3)CC2)csc1Cl [Example E21, 5-Chloro-4-methoxythien-3-yl-[4-fluoro-4-[[(5-methylpyridin-2-ylmethyl)amino]methyl]piperidin-1-yl]-methanone] | > 5 | > 5 | 0.501 to 5 | > 5 | < 0.05 | 0.501 to 5 |  | > 5 |
| [4-Fluoro-4-[[(5-methylpyridin-2-ylmethyl)amino]methyl]piperidin-1-yl]-indol-2-yl-methanone [Example E41] | > 5 | > 5 | 0.501 to 5 | 0.501 to 5 | 0.05 to 0.5 | 0.501 to 5 |  | > 5 |
| Cc1ccc(CNCC2(F)CCN(C(=O)c3ccsc3Br)CC2)nc1 [Example E19, 2-Bromothien-3-yl-[4-fluoro-4-[[(5-methylpyridin-2-ylmethyl)amino]methyl]piperidin-1-yl]-methanone] | > 5 | > 5 | 0.501 to 5 | > 5 | < 0.05 | 0.501 to 5 |  | > 5 |

Reference: EP2058306A1, “Heteroaryl-substituted 2-pyridinyl-methylamine derivatives” (SCHWARZ PHARMA AG, priority 2007, dated 2009)
